Measurements taken from the supplement of paper PMC10307832.

How the values were obtained:
Experiment in all cases: relative viability (nuclei count vs DMSO), 5 days (fraction); higher = more cells survive
Sunitinib = compound: CCN(CC)CCNC(=O)c1c(C)[nH]c(/C=C2\C(=O)Nc3ccc(F)cc32)c1C [Sunitinib]
How it was run: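 Cells of lung cancer lines were placed in 1536-well plates and kept overnight at 37 °C. Pinning then delivered five library-drug doses (not always all listed), spaced by √10, onto plates anchored with vehicle, and the cells were left 5 days without changing medium. One step fixed, permeabilised and stained them with Hoechst, and MetaXpress counted nuclei in 4× images. Viability, as a median over plates, is treated-well nuclei divided by vehicle-well nuclei, with acceptance only at control CV below 25% and at least one doubling.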

Sunitinib + AZD7762 = compound: CCN(CC)CCNC(=O)c1c(C)[nH]c(/C=C2\C(=O)Nc3ccc(F)cc32)c1C [Sunitinib] + NC(=O)Nc1cc(-c2cccc(F)c2)sc1C(=O)N[C@H]1CCCNC1 [AZD7762] (partner 0.2 µM)
How it was run: (§1)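 Lung cancer cell lines in 1536-well plates were dosed by pin tool the day after seeding, either with one drug alone or with a fixed anchor-drug dose plus five library-drug doses (not always all listed) in √10 steps. After 5 days, cells were fixed and their nuclei stained in one step (final 0.05% Triton X-100, 1% formaldehyde, 1 ug/ml Hoechst), then counted on 4× images. Relative viability is the nuclei count in treated wells divided by that in vehicle wells. Values are medians of duplicate plates.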

Sunitinib + Trametinib = compound: CCN(CC)CCNC(=O)c1c(C)[nH]c(/C=C2\C(=O)Nc3ccc(F)cc32)c1C [Sunitinib] + CC(=O)Nc1cccc(-n2c(=O)n(C3CC3)c(=O)c3c(Nc4ccc(I)cc4F)n(C)c(=O)c(C)c32)c1 [Trametinib] (partner 0.02 µM)
How it was run: as §1

Sunitinib + Tozasertib = compound: CCN(CC)CCNC(=O)c1c(C)[nH]c(/C=C2\C(=O)Nc3ccc(F)cc32)c1C [Sunitinib] + Cc1cc(Nc2cc(N3CCN(C)CC3)nc(Sc3ccc(NC(=O)C4CC4)cc3)n2)n[nH]1 [Tozasertib] (partner 0.1 µM)
How it was run: as §1

Cell Line	relative viability (Sunitinib; 0.02 µM)	relative viability (Sunitinib; 0.06325 µM)	relative viability (Sunitinib; 0.2 µM)	relative viability (Sunitinib; 0.6325 µM)	relative viability (Sunitinib; 2 µM)	relative viability (Sunitinib + AZD7762; first compound 0.02 µM)	relative viability (Sunitinib + AZD7762; first compound 0.06325 µM)	relative viability (Sunitinib + AZD7762; first compound 0.2 µM)	relative viability (Sunitinib + AZD7762; first compound 0.6325 µM)	relative viability (Sunitinib + AZD7762; first compound 2 µM)	relative viability (Sunitinib + Trametinib; first compound 0.02 µM)	relative viability (Sunitinib + Trametinib; first compound 0.06325 µM)	relative viability (Sunitinib + Trametinib; first compound 0.2 µM)	relative viability (Sunitinib + Trametinib; first compound 0.6325 µM)	relative viability (Sunitinib + Trametinib; first compound 2 µM)	relative viability (Sunitinib + Tozasertib; first compound 0.02 µM)	relative viability (Sunitinib + Tozasertib; first compound 0.06325 µM)	relative viability (Sunitinib + Tozasertib; first compound 0.2 µM)	relative viability (Sunitinib + Tozasertib; first compound 0.6325 µM)	relative viability (Sunitinib + Tozasertib; first compound 2 µM)
NCI-H1915	0.943	1.05	1.02	1.03	1.07	0.678	0.741	0.601	0.749	0.75	0.291	0.291	0.304	0.298	0.261	0.415	0.418	0.46	0.453	0.465
CAL-12T	0.908	1.03	1.11	1.13	1.03	0.648	0.663	0.65	0.731	0.76	0.322	0.356	0.4	0.407	0.268	0.324	0.302	0.314	0.324	0.213
LCLC-103H	0.905	1.07	1.12	0.903	1.03	0.808	0.786	0.89	0.925	0.851	0.612	0.692	0.629	0.728	0.719	0.459	0.44	0.478	0.44	0.514
NCI-H1666	1.02	1.07	1.1	1.05		0.782	1.02	0.907	0.895	0.886	0.843	0.888	1.09	0.879	0.882	0.676	0.685	0.719	0.655	0.71
NCI-H1651	0.938	1.1		0.996	1.03	0.462	0.478	0.451	0.441	0.449	0.801		0.901		0.847	0.618	0.687	0.787	0.584	0.548
SW 900	1.01	1.07	0.932	1.04	0.957	0.633	0.676	0.664	0.67	0.648	0.718	0.715	0.941	0.795	0.766	0.432	0.58	0.648	0.525	0.328
NCI-H838	0.932	1.06	1.03	0.952	0.782	0.956	0.907	1.01	0.993	0.884	0.473	0.558	0.647	0.534	0.489	0.301	0.311	0.314	0.266	0.246
LC-2-ad	0.945	1.01	1.09	1	0.781	0.796	0.889	0.983	0.844	0.873	0.894	0.951	0.896	0.825	0.722	0.479	0.484	0.486	0.502	0.493
NCI-H2087	1.16	1.25	1.13	1.1	1.11	1.21	1.42	1.34	1.41	1.46	0.2	0.234	0.266	0.211	0.237	0.253	0.259	0.329	0.284	0.233
NCI-H2347	1.01	1.08	1.1	1.04	1.18	0.709	0.844	0.813	0.838	0.871	0.293	0.251	0.24	0.314	0.296	0.599	0.481	0.59	0.607	0.523
HCC-78	0.984	0.947	0.994	0.899	1	0.554	0.609	0.727	0.485	0.713	0.76	0.812	0.985	0.737	0.701	0.411	0.502	0.548	1.43	0.43
NCI-H1793		0.974		0.964	0.831		0.448	0.44	0.377	0.334		0.364	0.377	0.514	0.331	0.413	0.34	0.351	0.281	0.214
NCI-H1734	0.916	1.11	1.04	1.05	0.981	0.436	0.592	0.635	0.543	0.518	0.595	0.665	0.747	0.653	0.644	0.265	0.262	0.25	0.325	0.247
NCI-H1437	1.03	1.03		0.996	1.09	1.09	1.14	1.15	1.13	1.07	0.478	0.539	0.611	0.607	0.537	0.391	0.302	0.408	0.39	0.41
HOP-62	0.95	1.07	1.13	1.1	1.06	0.579	0.675	0.874	0.688	0.85	0.376	0.364	0.389	0.374	0.379	0.351	0.352	0.383	0.431	0.397
HCC-15	0.988	1.11		1.04	1	1.17	1.28	1.37	1.09	1.41	0.36	0.316	0.305	0.352	0.312	0.407	0.371	0.468	0.411	0.651
HCC-44		1.04	1.04	1.01	1.04	1.05	1.08	1.01	1.01	1.05	1.06	1.14	1.1	1.08		0.923	1.01	1.44	1.07	0.499
NCI-H596	0.952	1.15		0.998	0.913		1.12	1.18		0.858	0.762	0.86	0.723		1.02	1.01	0.944	0.985	0.912	0.705
NCI-H322M	0.866	1.02	1	0.936	0.892	0.611	0.559	0.524	0.651	0.64	0.536	0.516	0.554	0.477	0.525	0.452	0.464	0.546	0.547	0.42
BEN	0.85	0.97	0.988	0.973		0.774	0.755	0.815	0.661	0.66	0.9		1.06	1.08	1.05	0.526	0.426	0.576	0.61	0.466
NCI-H522	0.927	1.12	0.996	0.962	0.999	0.839		0.73	0.848	0.942		0.672	0.667	0.783	0.794	0.6	0.568	0.499	0.521	0.682
LOU-NH91	1.01	0.969	1	0.98	0.941		0.688	0.879	0.831	0.756	0.791	0.811	0.844	0.823	0.787	0.666	0.732	0.673	0.753	0.738
HCC-366	0.963	1.05	1.07		0.965	0.241	0.207	0.379	0.238	0.216	0.313	0.407	0.382	0.389	0.339	0.12	0.0634	0.133	0.0819	0.0457
PC-14	1.01	1.01	1.13	1.02	0.898	0.374	0.442	0.387	0.319	0.348	0.665	0.743	0.833	0.771	0.579	0.53	0.589	0.583	0.578	0.523
NCI-H441	0.863		1.17	1.11	1.12		1.25	1.36	1.24	1.17	0.432	0.581	0.518	0.524	0.409	0.706	0.639	0.652	0.71	0.494
NCI-H1993	0.963	0.992	1.08	0.915	0.98	0.723	0.757	0.782	0.761	0.845	0.51	0.53	0.448	0.424	0.651	0.527	0.581	0.678	0.605	0.586
NCI-H2126	0.946	1.06	1.04	1.04	1.03	0.937	1.07	1.21	1.03	1.02	0.545	0.59	0.612	0.573	0.605	0.846	0.852	0.963	0.92	0.81
HCC-827	1.01	1.06	1.05	1.05	1.04	0.249	0.191	0.21	0.174	0.207	0.555	0.61	0.558	0.613	0.618	0.405	0.416	0.449	0.439	0.407
